Reference: paper PMC8795197, “Safety and activity of WX-0593 (Iruplinalkib) in patients with ALK- or ROS1-rearranged advanced non-small cell lung cancer: a phase 1 dose-escalation and dose-expansion trial” (Signal Transduction and Targeted Therapy, 2022)
Like-named read-outs stand apart in the source and are kept apart here.

How the values were obtained:
[1] = tested on: Caco-2 cell monolayer; experiment: Caco-2 cell monolayer permeability assay; format: in vitro ADME
Source text: The objective of this study was to determine the bidirectional permeability and efflux ratio (ER) of the test article WX-0593 using the Caco-2 cell monolayer model.

[2] = in vivo; details: cynomolgus monkey, po; for AUC(0-t) / Cmax: 50 mg/kg
[3] = tested on: NCI-H1975 (EGFR mutant L858R/T790M); experiment: Cell proliferation inhibition assay; format: cell-based
[4] = molecular target: M2 (Homo sapiens, UniProt P08172); experiment: GPCR antagonist screening assay; format: cell-based
Chain of M2 (P08172 whole entry): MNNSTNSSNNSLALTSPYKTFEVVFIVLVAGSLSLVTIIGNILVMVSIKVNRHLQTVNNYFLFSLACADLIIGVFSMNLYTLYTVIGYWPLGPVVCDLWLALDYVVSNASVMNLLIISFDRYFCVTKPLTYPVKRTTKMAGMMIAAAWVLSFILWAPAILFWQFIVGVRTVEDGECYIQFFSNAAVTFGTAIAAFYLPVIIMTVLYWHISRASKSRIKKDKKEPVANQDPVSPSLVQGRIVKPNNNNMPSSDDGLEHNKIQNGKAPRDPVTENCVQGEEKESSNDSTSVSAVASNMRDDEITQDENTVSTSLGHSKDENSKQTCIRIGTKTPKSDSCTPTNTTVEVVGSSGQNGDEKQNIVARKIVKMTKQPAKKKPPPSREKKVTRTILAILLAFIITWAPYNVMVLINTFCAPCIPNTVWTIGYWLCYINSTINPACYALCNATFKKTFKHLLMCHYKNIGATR

[5] = Phase 1 dose-escalation phase: plasma pharmacokinetics; format: in vivo, human; details: for Tmax / AUC(0-t) / AUC(0-inf) / Cmax / MRT inf / half-life: human, plasma, oral; for Tmax / AUC(0-t) / AUC(0-inf) / Cmax / MRT inf / half-life / Cssmax / Cssmin / Racc_AUC / Racc_Cmax: mean (SD); for MRT inf: read-out: MRT0-∞; for half-life: read-out: T1/2z (converted)
Method: Three patients were assigned to each dose level. In the dosing cohort of 30 mg, treatment included a single WX-0593 dose, followed by 7-day PK evaluation period, and subsequent daily oral dosing for continuous 21 days. In other dosing cohorts, WX-0593 was administered orally as a single dose in the 4-day PK run-in period, followed by dosing once per day in continuous 21-day cycles. The DLT observation period was the first cycle of WX-0593 treatment (the single-dose period and 21 days of multiple-dose period).
In the dose-escalation phase, blood samples were collected at protocol-specified time points after single and multiple dose administration of WX-0593 in all dosing cohorts for assessment of PK parameters.
Safety analysis was performed in the SS, which was comprised of all patients treated with one dose of WX-0593 and with safety data recorded. Efficacy analysis was performed in the FAS, which was defined as all patients treated with at least one dose of WX-0593. The PK analysis set included all patients treated with at least one dose of WX-0593 and with at least one evaluable PK sample.
Descriptive statistics were carried out to summarize patients’ baseline characteristics and safety. […] All time-to-event data (PFS, TTP, DOR, and OS) and their corresponding 95% CIs were estimated by Kaplan–Meier methods. PK parameter analyses were done with Phoenix WinNonlin version 8.0. All other statistical analyses were conducted using SAS version 9.4.
Blood sampling time points for single dose: Blood samples are collected before dosing and 0.5 h, 1 h, 2 h, 3 h, 4 h, 5 h, 6 h, 8 h, 12 h, 24 h, 32 h, 48 h, and 72 h after dosing (after adjustment according to the pharmacokinetic parameters of patients in the first dose arm).
Blood sampling time points for repeated dosing: Repeated dosing starts 4 days after single dose administration. Blood samples are collected before repeated dosing on Days 7, 14, and 21 before repeated dosing, and within 24h after dosing (0.5 h, 1 h, 2 h, 3 h, 4 h, 5 h, 6 h, 8 h, 12 h, 24 h) for measurement of blood pharmacokinetic parameters.
The plasma concentration of WX-0593 will be determined using LC-MS.

[6] = tested on: remaining 17 GPCR targets; experiment: GPCR antagonist screening assay; format: cell-based; details: highest dose detected
[7] = tested on: 21 GPCR targets; experiment: GPCR agonist screening assay; format: cell-based; details: all 21 GPCR targets
Source text: In the agonist screening assay, the activity percent at maximum dose of WX-0593 was all less than 50% for the 21 GPCR targets tested.

[8] = Mutagenicity study
[9] = tested on: Ba/F3 (EML4-ALK-C1156Y); experiment: Cell proliferation inhibition assay; format: cell-based
[10] = multiple dosing 120 mg (n = 11)
[11] = multiple dosing 180 mg (n = 13)
[12] = multiple dosing 240 mg (n = 12)

With COc1cc(N2CCC3(CCN(C)CC3)CC2)ccc1Nc1ncc(Cl)c(Nc2ccccc2P(C)(C)=O)n1 [WX-0593] the efflux transporter substrate [1] was “very likely to be a substrate of efflux transporters”, the permeability ([1]; 50 µM) was “high permeability” and the permeability ([1]; 0.5 and 5 µM) was “low permeability”. For the same compound, the MTD [2] was 50 mg/kg, the AUC(0-t) ([2]; female) was 50.6 µg·h/mL and the Cmax ([2]; female) was 4.01 µg/mL. For the same compound, the AUC(0-t) ([2]; male) was 35 µg·h/mL, the Cmax ([2]; male) was 2.18 µg/mL and the growth inhibition [3] was “somewhat inhibits the growth”. For the same compound, the IC50 [4] was over 10 µM, the “free Cavg,ss” value ([5]; 180 mg, once daily) was 0.127 µM and the Tmax ([5]; 30 mg, multiple dosing 30 mg (n = 3)) was 4.33 h. For the same compound, the AUC(0-t) ([5]; 30 mg, multiple dosing 30 mg (n = 3), read-out: AUC0–24) was 1.15 µg·h/mL, the Tmax ([5]; 30 mg, single dose 30 mg (n = 3)) was 2.32 h and the AUC(0-t) ([5]; 30 mg, single dose 30 mg (n = 3), read-out: AUC0-t) was 1.31 µg·h/mL. It also gave a Tmax ([5]; 60 mg, multiple dosing 60 mg (n = 3)) of 4.01 h, an AUC(0-t) ([5]; 60 mg, multiple dosing 60 mg (n = 3), read-out: AUC0–24) of 4.96 µg·h/mL and a Tmax ([5]; 60 mg, single dose 60 mg (n = 3)) of 1.33 h. It also gave an AUC(0-t) ([5]; 60 mg, single dose 60 mg (n = 3), read-out: AUC0-t) of 3.65 µg·h/mL, a Tmax ([5]; 90 mg, multiple dosing 90 mg (n = 8)) of 2.87 h and an AUC(0-t) ([5]; 90 mg, multiple dosing 90 mg (n = 8), read-out: AUC0–24) of 4.39 µg·h/mL. For the same compound, the Tmax ([5]; 90 mg, single dose 90 mg (n = 8)) was 1.69 h, the AUC(0-t) ([5]; 90 mg, single dose 90 mg (n = 8), read-out: AUC0-t) was 5.43 µg·h/mL and the Tmax ([5]; 120 mg, multiple dosing 120 mg (n = 11)) was 2.79 h. The AUC(0-t) ([5]; 120 mg, multiple dosing 120 mg (n = 11), read-out: AUC0–24) was 6.12 µg·h/mL, the Tmax ([5]; 120 mg, single dose 120 mg (n = 11)) was 1.81 h and the AUC(0-t) ([5]; 120 mg, single dose 120 mg (n = 11), read-out: AUC0-t) was 7.78 µg·h/mL. The Tmax ([5]; 180 mg, multiple dosing 180 mg (n = 13)) was 2.79 h, the AUC(0-t) ([5]; 180 mg, multiple dosing 180 mg (n = 13), read-out: AUC0–24) was 7.21 µg·h/mL and the Tmax ([5]; 180 mg, single dose 180 mg (n = 12)) was 2.29 h. The AUC(0-t) ([5]; 180 mg, single dose 180 mg (n = 12), read-out: AUC0-t) was 6.62 µg·h/mL, the Tmax ([5]; 240 mg, multiple dosing 240 mg (n = 12)) was 3.27 h and the AUC(0-t) ([5]; 240 mg, multiple dosing 240 mg (n = 12), read-out: AUC0–24) was 12.7 µg·h/mL. For the same compound, the Tmax ([5]; 240 mg, single dose 240 mg (n = 10)) was 2.5 h, the AUC(0-t) ([5]; 240 mg, single dose 240 mg (n = 10), read-out: AUC0-t) was 15.5 µg·h/mL and the Tmax ([5]; 300 mg, multiple dosing 300 mg (n = 2)) was 1.24 h. The AUC(0-t) ([5]; 300 mg, multiple dosing 300 mg (n = 2), read-out: AUC0–24) was 23.4 µg·h/mL, the Tmax ([5]; 300 mg, single dose 300 mg (n = 3)) was 2.71 h and the AUC(0-t) ([5]; 300 mg, single dose 300 mg (n = 3), read-out: AUC0-t) was 14.9 µg·h/mL. It also gave an AUC(0-inf) ([5]; single dose 30 mg (n = 3)) of 1.71 µg·h/mL, a Cmax ([5]; single dose 30 mg (n = 3)) of 0.105 µg/mL and an MRT inf ([5]; single dose 30 mg (n = 3)) of 20.7 h. For the same compound, the half-life ([5]; single dose 30 mg (n = 3)) was 15.5 h, the AUC(0-inf) ([5]; single dose 60 mg (n = 3)) was 4.06 µg·h/mL and the Cmax ([5]; single dose 60 mg (n = 3)) was 0.305 µg/mL. For the same compound, the MRT inf ([5]; single dose 60 mg (n = 3)) was 28.3 h, the half-life ([5]; single dose 60 mg (n = 3)) was 25.7 h and the AUC(0-inf) ([5]; single dose 90 mg (n = 8)) was 6.21 µg·h/mL. It also gave a Cmax ([5]; single dose 90 mg (n = 8)) of 0.474 µg/mL, an MRT inf ([5]; single dose 90 mg (n = 8)) of 24 h and a half-life ([5]; single dose 90 mg (n = 8)) of 21.9 h. The AUC(0-inf) ([5]; single dose 120 mg (n = 11)) was 8.12 µg·h/mL, the Cmax ([5]; single dose 120 mg (n = 11)) was 0.571 µg/mL and the MRT inf ([5]; single dose 120 mg (n = 11)) was 25.6 h. It also gave a half-life ([5]; single dose 120 mg (n = 11)) of 22.2 h, an AUC(0-inf) ([5]; single dose 180 mg (n = 12)) of 7.32 µg·h/mL and a Cmax ([5]; single dose 180 mg (n = 12)) of 0.401 µg/mL. For the same compound, the MRT inf ([5]; single dose 180 mg (n = 12)) was 27.9 h, the half-life ([5]; single dose 180 mg (n = 12)) was 23.9 h and the AUC(0-inf) ([5]; single dose 240 mg (n = 10)) was 16.9 µg·h/mL. For the same compound, the Cmax ([5]; single dose 240 mg (n = 10)) was 1 µg/mL, the MRT inf ([5]; single dose 240 mg (n = 10)) was 25 h and the half-life ([5]; single dose 240 mg (n = 10)) was 22.9 h. It also gave an AUC(0-inf) ([5]; single dose 300 mg (n = 3)) of 17.1 µg·h/mL, a Cmax ([5]; single dose 300 mg (n = 3)) of 0.905 µg/mL and an MRT inf ([5]; single dose 300 mg (n = 3)) of 32.4 h. For the same compound, the half-life ([5]; single dose 300 mg (n = 3)) was 27.5 h, the Cssmax ([5]; multiple dosing 30 mg (n = 3)) was 95.13 (54.02) ng/mL and the Cssmin ([5]; multiple dosing 30 mg (n = 3)) was 25.00 (8.04) ng/mL. The Racc_AUC ([5]; multiple dosing 30 mg (n = 3)) was 116.256 (32.91) %, the Racc_Cmax ([5]; multiple dosing 30 mg (n = 3)) was 89.141 (35.00) % and the Cssmax ([5]; multiple dosing 60 mg (n = 3)) was 419.00 (128.24) ng/mL. For the same compound, the Cssmin ([5]; multiple dosing 60 mg (n = 3)) was 117.87 (59.10) ng/mL, the Racc_AUC ([5]; multiple dosing 60 mg (n = 3)) was 203.993 (32.03) % and the Racc_Cmax ([5]; multiple dosing 60 mg (n = 3)) was 150.689 (39.79) %. The Cssmax ([5]; multiple dosing 90 mg (n = 8)) was 324.38 (109.58) ng/mL, the Cssmin ([5]; multiple dosing 90 mg (n = 8)) was 103.65 (29.27) ng/mL and the Racc_AUC ([5]; multiple dosing 90 mg (n = 8)) was 149.978 (88.53) %. For the same compound, the Racc_Cmax ([5]; multiple dosing 90 mg (n = 8)) was 117.082 (97.12) %, the Cssmax [5, 10] was 479.20 (151.70) ng/mL and the Cssmin [5, 10] was 139.24 (34.22) ng/mL. The Racc_AUC [5, 10] was 130.809 (36.42) %, the Racc_Cmax [5, 10] was 111.519 (44.39) % and the Cssmax [5, 11] was 529.38 (203.22) ng/mL. The Cssmin [5, 11] was 164.10 (77.76) ng/mL, the Racc_AUC [5, 11] was 174.265 (35.49) % and the Racc_Cmax [5, 11] was 138.238 (26.54) %. For the same compound, the Cssmax [5, 12] was 960.50 (234.47) ng/mL, the Cssmin [5, 12] was 236.00 (56.80) ng/mL and the Racc_AUC [5, 12] was 160.210 (77.95) %. The Racc_Cmax [5, 12] was 127.749 (58.74) %, the Cssmax ([5]; multiple dosing 300 mg (n = 2)) was 1685.00 (657.61) ng/mL and the Cssmin ([5]; multiple dosing 300 mg (n = 2)) was 623.50 (402.34) ng/mL. For the same compound, the Racc_AUC ([5]; multiple dosing 300 mg (n = 2)) was 309.507 (151.00) %, the Racc_Cmax ([5]; multiple dosing 300 mg (n = 2)) was 223.005 (88.95) % and the “dose proportionality of exposure” value ([5]; once-daily 30 to 300 mg, AUC0–24) was “increased in an approximately dose-proportion manner”. For the same compound, the IC50 [6] was over 111 µM, the “activity percent at maximum dose (agonist)” value [7] was “less than 50%” and the EC50 ([7]; highest dose detected) was over 133 µM. The mutagenic activity [8] was “no mutagenic activity” and the growth inhibition [9] was “significantly inhibits the growth”.
